Here are results for 2 compounds from US5250537A, “5,6,7,8,9,10-hexahydro-7 ,10-iminocyclohept[b]indole,-6,7,8,9,10-hexahydro-7,11-imino-5H-cyclooct[ b]indole and substituted derivatives” (Scios Nova Inc., priority 1992, dated 1993).

Experiment [1] relates to dopamine receptors. The note with it: Welch et al. 1980; cited from earlier work.
Experiment [2] concerns dopamine receptors. Kind of experiment: In Vivo Dopamine Antagonist Activity (inhibition of apomorphine-induced climbing). Details: species or system mice (CF-1). The note with it: intraperitoneal (ip) administration.
Experiment [3] relates to dopamine D-2 receptors. The note with it: Snyder and Largent 1988; cited from earlier work.
Experiment [4] deals with sigma receptors. The note with it: Snyder and Largent 1988; cited from earlier work.

Molecules are shown by their SMILES. Structures can show the parent of a compound that is named as a salt.

Regarding `OC(CCCN1CC[C@@H]2[C@@H](C1)c1cc(F)ccc1N2c1ccc(F)cc1)c1ccc(F)cc1` (relative stereo) [4a,9b-trans-8-fluoro-5-(4-fluorophenyl)-2-[4-(4-fluorophenyl)-4-hydroxy-butyl]-2,3,4,4a,9b-hexahydro-1H-pyrido[4,3-b]indole hydrochloride], in experiment [1], the “neuroleptic activity (in words)” value was “potent neuroleptic which acts by blocking dopamine receptors”.

`O=C(CCCN1CCC(O)(c2ccc(Cl)cc2)CC1)c1ccc(F)cc1` [haloperidol]: the “potency to inhibit apomorphine-induced climbing (reference)” value in experiment [2] stood at 0.01 mg/kg. The “binding to dopamine D-2 receptors (in words)” value in experiment [3] is “bind to both dopamine D-2 and sigma receptors”. For the same compound, the “binding to sigma receptors (in words)” value in experiment [4] was “bind to both dopamine D-2 and sigma receptors”.
